The results in this text go back to ChEMBL document CHEMBL3507680, “University of Dundee, Gates Library screen for HepG2 cell viability”.

A short description of this data set: Human HepG2 cell viability assay in 384 well format. The following applies: HepG2 cells, read-out: Inhibition. The arrangement: dose 125 nL, time 70.5 hour; concentration not given beside the values. The class given is toxicity, cell-based.
In the case of `COc1ccc(NC(=O)Cn2ccc3c(=O)n(C)ccc32)cc1OC`, the cytotoxicity at 70.5 h was -3.38%. With `COCCNC(=O)Cn1ccc2sc(C)cc2c1=O` the figure was -5.23%. With `CNC(=O)c1ccccc1-c1ccc(S(C)(=O)=O)cc1` the figure was -4.9%; with `Cc1ccc(Oc2ncccc2C(=O)N(C)CC2OCCO2)c(C)c1`, -4.31%; with `COc1ccc(C(=O)Nc2ccccc2C(C)C)c(OC)n1`, 5.28%.

Consider `O=C(NCCC1=CCCCC1)c1ccc(-n2cccc2)nc1`, for which the cytotoxicity at 70.5 h is -3.84%. As for `CC1CN(c2ncccc2C(=O)N[C@@H]2CCCc3ccccc32)CCN1` (stereo partly specified), the figure is -4.37%. With `CCOCCNC(=O)c1cccnc1N1CCCC1c1ccccn1` (stereo unspecified) the figure was -8.32%; with `CCCNc1ccc(C(=O)NCCc2ccc(Cl)cc2)cn1`, -5.63%; with `O=C(NC[C@@H]1CCCO1)c1cc(Br)cnc1N1CCCCC1`, -1.68%.

For the compound `COc1ccc2c(c1)C(=O)CC1(CCN(Cc3ccc(F)cc3)CC1)O2`, the cytotoxicity at 70.5 h came out at 21.7%. As to `COc1ccc2c(c1)OC1(CCN(Cc3ccccc3C)CC1)CC2=O`, the cytotoxicity at 70.5 h is -3.9%. With `COc1ccc2c(c1)OC1(CCN(Cc3cccc(C)c3)CC1)CC2=O` the figure was -2.19%; with `O=C(NC[C@@H]1CCCO1)c1cccnc1N1CCCC1c1ccccc1` (stereo partly specified), -5.49%; with `CN(CCc1ccccc1)C(=O)c1cccnc1OCC(F)(F)F`, 20%. For `O=C(c1cccnc1SCc1ccccc1)N1CC[C@@H](O)C1`, the cytotoxicity at 70.5 h is 29.6%.

In the case of `CCOCCNC(=O)c1cccnc1Sc1cc(OC)ccc1OC`, the cytotoxicity at 70.5 h is 15.5%. With `COc1ccc(OC)c(Sc2ncccc2C(=O)NCC2CC2)c1` the figure was 24.9%; with `COCCNC(=O)c1cccnc1Sc1cc(OC)ccc1OC`, 11.2%. As for `CCCSc1ncccc1C(=O)NCc1ccc(N(C)C)cc1`, the figure is 18.5%; as for `CC1CCN(c2ncc(C#N)c(N)n2)CC1`, -3.5%. Consider `Cc1ccc(-c2nnc(CN3CCN(c4ccccn4)CC3)o2)cc1`, for which the cytotoxicity at 70.5 h is 3.67%.

For `CC(=O)N1N=C(c2ccccc2)OC1C(=O)NCCOc1ccccc1` (stereo unspecified), the cytotoxicity at 70.5 h was -3.08%. As for `CC(=O)N1N=C(Cc2ccccc2)OC1C(=O)NCC(C)C` (stereo unspecified), the figure is -1.89%; as for `Cc1cc(Cl)ccc1-n1ncc(C(=O)NCC2COC(C)(C)O2)c1N` (stereo unspecified), 23.9%; as for `CCOC(=O)C1CCN(C(=O)c2cnn(-c3ccccc3F)c2N)CC1`, -4.94%. With `Cc1ccc(C)c(-n2ncc(C(=O)N(C)CCc3ccccn3)c2N)c1` the figure was 4.61%; with `CN1CCC(N(C)C(=O)c2cnn(-c3cc(F)ccc3F)c2N)CC1`, -0.483%. As for `CCOC(=O)CNC(=O)C1OC(c2ccccc2)=NN1C(C)=O` (stereo unspecified), the figure is -6.97%. `COc1ccc(NC(=O)C2OC(c3cccs3)=NN2C(C)=O)cc1OC` (stereo unspecified): the cytotoxicity at 70.5 h was found to be 2.61%. With `CC(=O)N1N=C(c2ccco2)OC1C(=O)N(CC(C)C)CC(C)C` (stereo unspecified) the figure was -1.96%; with `CCN(CC)CCNC(=O)CCc1c(C)nn(-c2ccc(Cl)cc2)c1C`, -7.15%. With `Cc1nc(C)n(CC2CCCCN2Cc2nc3ccccc3o2)n1` (stereo unspecified) the figure was 17.7%. As for `Cc1nc(C)n(CC2CN(CC(=O)NC3CCCC3)CCO2)n1` (stereo unspecified), the figure is -7.31%. For the compound `Cc1cnn(C2CN(Cc3nc(-c4ccsc4)no3)C2)c1`, the cytotoxicity at 70.5 h is -8.74%. As for `CCc1nc(CNc2ccc(C(=O)N3CCSCC3)cc2C)no1`, the figure is -6.1%; as for `CC(C)Cn1nnnc1SC(C(=O)NCc1cccnc1)C(C)C` (stereo unspecified), -4.78%; as for `Cc1cc(CN(C)C2CCCN(c3cccnn3)C2)no1` (stereo unspecified), -9.99%. For the compound `Cc1nc(C)n(CC2CCCCN2Cc2cnc(C)s2)n1` (stereo unspecified), the cytotoxicity at 70.5 h was -7.75%. As for `Cc1cc(C(=O)N2CCCC(C)C2)ccc1NCc1nc(C(C)C)no1` (stereo unspecified), the figure is -9.64%. With `CCN(C(C)=O)c1nc(CN2CCCCC2Cn2cncn2)cs1` (stereo unspecified) the figure was -3.03%.

For `Cc1cc(C)n(CC2CCCN2Cc2ncc(C(C)(C)C)o2)n1` (stereo unspecified), the cytotoxicity at 70.5 h was -5.22%.

For `CCn1cc(CN2CCCN(C(=O)CCSC)CC2)cn1`, the cytotoxicity at 70.5 h is -1.89%. With `CC(C)Oc1ccc(Cl)c(C(=O)N2CCN(CCO)CC2)n1` the figure was -12.1%; with `COc1c(CNCC(O)c2ccccc2F)c(C(C)C)nn1C` (stereo unspecified), 21.4%. With `CCn1cc(CN2CCCN(C(=O)CCc3cccs3)CC2)cn1` the figure was -12.3%; with `CCn1cc(CN2CCCN(C(=O)CCc3ccccc3)CC2)cn1`, -12.3%; with `COCCN1CCN(Cc2ccc(OCc3nccn3C)cc2)CC1`, -14.3%. With `CC(=O)N1CCN(Cc2coc(-c3cccc(F)c3)n2)CC1` the figure was -19.9%; with `CCn1cc(CN2CCCN(C(=O)CCn3cc(C)cn3)CC2)cn1`, -12.3%.

Regarding `O=C(c1ccc2[nH]nnc2c1)N1CCC(Nc2cccnn2)CC1`, the cytotoxicity at 70.5 h came to 10.7%. Regarding `CC(C)Cc1cc(NC(=O)c2ccccc2)n(C)n1`, the cytotoxicity at 70.5 h is -15.4%. As for `O=C(NCC1COC2(CCOCC2)O1)c1csc(-c2cccc(Cl)c2)n1` (stereo unspecified), the figure is -20.8%; as for `CCn1cc(CN2CCCN(C(=O)CCc3nccs3)CC2)cn1`, -12.4%; as for `COc1ccc(-c2nc(C(=O)NCC3CCOC3)cs2)cc1OC` (stereo unspecified), -7.66%. With `CCOc1ccc(-c2nc(C(=O)NCC3CCOC3)cs2)cc1` (stereo unspecified) the figure was -7.97%; with `CCOc1ccc(Cl)c(C(=O)N2CCN(C(=O)OC)CC2)n1`, -14.3%; with `CCOc1ccc(Cl)c(C(=O)N2CCN(c3ncccn3)CC2)n1`, -12.1%. Take `CC(=O)N1CCN(Cc2ccc(OCc3nccn3C)cc2)CC1`: the cytotoxicity at 70.5 h is -8.75%.

For the compound `COc1ccc(C(=O)Nc2cc(CC(C)C)nn2C)cc1`, the cytotoxicity at 70.5 h was 7.52%. With `COc1ccccc1C(=O)Nc1cc(CC(C)C)nn1C` the figure was -3.94%; with `CC(C)Cc1cc(NC(=O)c2ccccn2)n(C)n1`, -10.2%. As for `CC(C)Cc1cc(NC(=O)c2ccncc2)n(C)n1`, the figure is -11.6%.

Consider `Cc1nc2cc(O)nn2c(C)c1CCC(=O)NCc1cc(Br)cs1`, for which the cytotoxicity at 70.5 h was -13.2%.

Take `O=C(c1ccc(-c2cnco2)cc1)N1CCC(Nc2cccnn2)CC1`: the cytotoxicity at 70.5 h was -4.21%.

For `O=C(c1ccc2cc[nH]c2c1)N1CCC(Nc2cccnn2)CC1`, the cytotoxicity at 70.5 h was -4.46%. With `CNC(=O)c1ccc(C(=O)N2CCCC(n3ccnc3)C2)cn1` (stereo unspecified) the figure was -15.9%; with `Cc1cnn(C2CCCN(C(=O)c3ccc(-n4cccn4)nc3)C2)c1` (stereo unspecified), -11.3%.

In the case of `Cc1oc(C(=O)O)cc1S(=O)(=O)Nc1ccc(Cl)cc1F`, the cytotoxicity at 70.5 h is -0.71%. As for `Cc1oc(C(=O)O)cc1S(=O)(=O)Nc1ccc(Br)cc1Cl`, the figure is -16.9%; as for `Cc1oc(C(=O)O)cc1S(=O)(=O)Nc1cc(Br)ccc1F`, -7.4%; as for `COC(=O)c1cccn1C1CCN(C(=O)c2c(C)noc2C)CC1`, 3.97%. Regarding `CC(C)N(C)CC(=O)N(C)C(c1cccc(F)c1)c1ccccn1` (stereo unspecified), the cytotoxicity at 70.5 h is 40.9%. With `COc1c(C)cnc(CN2CCC(N(C)C(=O)C(C)OC)CC2)c1C` (stereo unspecified) the figure was 7.6%; with `CC(=O)N(C)C(c1cccc(F)c1)c1ccccn1` (stereo unspecified), 8.62%; with `c1csc(N2CCCN(Cc3noc(C4CC4)n3)CC2)n1`, -11.8%. As for `Cc1ccc(NC2CCN(C(=O)c3cnn(C(C)(C)C)c3)CC2)nn1`, the figure is -14.1%. As for `CCOCCCC(=O)N(C)C(c1cccc(F)c1)c1ccccn1` (stereo unspecified), the figure is -23.5%; as for `COCCN1CCC(NCc2ccc(Cl)cc2)C1` (stereo unspecified), -11.1%; as for `Cc1ccc(NC2CCN(C(=O)c3ccnc(N(C)C)c3)CC2)nn1`, -22.6%. As for `CN(C)S(=O)(=O)N(C)C(c1cccc(F)c1)c1ccccn1` (stereo unspecified), the cytotoxicity at 70.5 h is -19.9%.

Take `Cc1nn(C)c(C)c1C1COCCN1C(=O)c1ccc(Cl)o1` (stereo unspecified): the cytotoxicity at 70.5 h was 10.5%. As for `Cc1ccc(NC2CCN(C(=O)c3ccncc3)CC2)nn1`, the figure is -12.4%. As to `CC(C)(C)c1nc(CN2CCCN(Cc3cccs3)CC2)no1`, the cytotoxicity at 70.5 h was -18.1%. As for `CCc1noc(CN2CCN(c3nccs3)CC2)n1`, the figure is 10.7%; as for `COc1ncccc1NC(=O)N(Cc1ccccn1)C1CC1`, -17.7%. `CCOCc1ccc(CNc2cncc(-n3cccn3)n2)cc1`: the cytotoxicity at 70.5 h came out at 8.54%. As for `COCc1ccc(CNc2cncc(-n3cccn3)n2)cc1`, the figure is -9.14%. With `Cc1cc(C(=O)N2CCCC2)ccc1NCC(=O)N1CCCCC1C` (stereo unspecified) the figure was 7.01%; with `NS(=O)(=O)Cc1ccc(CNc2cncc(-n3cccn3)n2)cc1`, -14%. With `O=C(CNc1cc(F)ccc1OCC1CCCO1)N1CCOCC1` (stereo unspecified) the figure was -0.218%; with `Cc1cc(C(=O)N2CCCCC2C)ccc1NC(=O)N1CCOCC1` (stereo unspecified), -6.59%. On to `O=C(Nc1cc(F)ccc1OCC1CCCO1)NC1CC1` (stereo unspecified), for which the cytotoxicity at 70.5 h was -8.4%. As for `c1ccc(CCCN2CCN(c3ccc4nncn4n3)CC2)cc1`, the figure is 0.863%; as for `CCNC(=O)N(C)C(c1ccccc1)c1ccccn1` (stereo unspecified), -4.29%. With `Cn1ccc(C(=O)Nc2cc(F)ccc2OCC2CCCO2)cc1=O` (stereo unspecified) the figure was -8.3%; with `O=C(Nc1cc(F)ccc1OCC1CCCO1)N1CCSCC1` (stereo unspecified), 0.0557%; with `NC(=O)c1cc(C2CCCN(C(=O)CCc3ccccn3)C2)n[nH]1` (stereo unspecified), -3.73%. On to `CCOCC(O)CN1CCN(C(=O)c2cc(C)ccc2OC)CC1` (stereo unspecified), for which the cytotoxicity at 70.5 h was -5.99%.

`NCCc1cn(Cc2ccccn2)c2ccccc12`: the cytotoxicity at 70.5 h was -5.82%. As for `NCCC(=O)Nc1ccc(-c2ccccc2)cc1`, the figure is -5.02%.
